Assay results published in patent US5466610A, “Immunoassays for insulin sensitivity enhancers, insulin sensitivity enhancer antibodies, and non-thiazolidinedione insulin sensitivity enhancer compositions” (Eli Lilly and Company, priority 1993, dated 1995).

Tests used:
monoclonal antibody 13E3 [1] = assay: High-volume screen, fluorescent antibody competition assay (inhibition of binding of CS-045 bPE); parameters: species or system mouse; conditions: for % inhibition in screen: approximately 2 μg/ml final concentration, CS-045 bPE binding to 13E3; for IC50: non-thiazolidinedione hits from high-volume screen
Method: (§1) Serial dilutions of test compound, fermentation broth, or tissue containing test compound or putative anti-idiotype culture supernatant (20 μl/well) were incubated 20 minutes in 96-well Pandex plates with the appropriate antibody (20 μl/well; 1 μg/ml) plus either goat anti-mouse IgG Latex beads or goat anti-rabbit IgG linked to polystyrene beads (IDEXX) (20 μl/well; 1:2 dilution). Fluorescent reference particles (IDEXX) were included in all assays to minimize well-to-well variation in filtration. Fluorescent CS-045 bPE or LY 301318 bPE (20 μl/well; 1:2,000 dilution) was then added to the wells. Incubations were terminated after 20 minutes by vacuum filtration and the polystyrene particles retained on the Pandex filters were then washed twice with TBS-A buffer (described below) and solid phase fluorescence determined as described above.
(§2) Assay buffers typically contained bovine serum albumin (Sigma) at 0.2% (for monoclonal antibody assays) or 0.5% BLOTTO (non-fat dry milk for rabbit antibody assays). Percent inhibition of binding in test incubations was calculated in relationship to binding in control incubations in which no test compound was added using the following formula: % inhibition=[1-(fluorescence at 575/620 nm in test incubations divided by fluorescence at 575/620 nm in control incubations)×100)]. Concentrations of test compound in fermentation broth or plasma was calculated by interpolation from a standard curve generated with known concentrations of the appropriate compound as described in Taber et al., Clinical Chemistry, 37(2):254 (1991).
The fluorescent antibody competition assay for high-volume screening was adapted as described below. Goat anti-mouse particles (1:2 dilution), fluorescent reference particles (dilution was optimized for each lot), and monoclonal antibody 13E3 (1 μg/ml) were premixed in TBS-A reaction buffer (0.02M Tris, 0.15M NaCl, 0.2% bovine serum albumin, 0.01% thimerosal, pH 7.5) and 40 μls was added to each well of the Pandex plate. Synthetic organic compounds (dissolved at 5 mg/ml DMSO and then diluted in TBS-A reaction buffer to 2 μg/ml) or 1:40 dilutions of fermentation broths were added to appropriate wells (20 μl/well) and incubated for approximately 20 minutes at room temperature. To each well was next added 20 μl of CS-045 bPE fluorogen; this final mixture was again incubated for approximately 20 minutes at room temperature in the dark. Wells were then aspirated by vacuum filtration and washed twice with TBS-A reaction buffer, and surface fluorescence was read at 545/575 nm and 590/620 nm using the Screen Machine (IDEXX Laboratories, Westbrook, Me.). Each Pandex plate contained both a negative control (only reaction buffer) and a positive control (LY 282449).
Final concentrations of synthetic organic compounds in high-volume screens was approximately 2 μg/ml and final concentrations of filtered fermentation broths were 1:40 (v/v). Wells that produced greater than 50% inhibition of binding of CS-045 bPE on both the initial screening and on retesting were considered positives. […] This problem was eliminated by inspection of data from each channel.

monoclonal antibody 8D6 = assay: Fluorescent antibody competition assay, IC50 determined with MoAb 8D6; assay type: binding, mouse
Method: (§3) All hybridoma media were screened for monoclonal anti-CS-045 antibodies on day 17 after fusion. The fluorescent antibody capture method was used and approximately 60 monoclonal antibodies were positive for binding of the CS-045 bPE fluorogen. Among these positive monoclonal antibodies, approximately 6 had binding affinity for 3 tested thiazolidinedione ISEs--LY 282449, [drawing 2] CS-045, and ciglitazone. Fifty percent binding inhibitory concentrations (IC50) were determined and data from 4 monoclonal antibodies are shown in Table 1 below.
as §1, with “Fluorescent CS-045 bPE or LY 301318 bPE (20 μl/well; 1:2,000 dilution) was then added to the wells.” left out
as §2

monoclonal antibody 10E1 = assay: Fluorescent antibody competition assay, IC50 determined with MoAb 10E1; assay type: binding, mouse
Method: as §3
as §1, with “Fluorescent CS-045 bPE or LY 301318 bPE (20 μl/well; 1:2,000 dilution) was then added to the wells.” left out
as §2

monoclonal antibody 13E3 [2] = assay: Fluorescent antibody competition assay, IC50 determined with MoAb 13E3; assay type: binding, mouse
Method: as §3
as §1, with “Fluorescent CS-045 bPE or LY 301318 bPE (20 μl/well; 1:2,000 dilution) was then added to the wells.” left out
as §2

monoclonal antibody 8F1 = assay: Fluorescent antibody competition assay, IC50 determined with MoAb 8F1; assay type: binding, mouse
Method: as §3
as §1, with “Fluorescent CS-045 bPE or LY 301318 bPE (20 μl/well; 1:2,000 dilution) was then added to the wells.” left out
as §2

[3] = Plasma levels of LY 116196 by fluorescent antibody competition assay; assay type: in vivo, mouse; conditions: for concentration at 1 h: 1 hr after third injection; for concentration at 3 h: 3 hr after third injection; for concentration at 6 h: 6 hr after third injection
Method: as §1, §2
In the same experiment described in FIG. 4, plasma was prepared from tail blood drawn at 1, 3, 6, and 24 hours after the third subcutaneous injection of LY 116196. Plasma concentrations of LY 116196 (shown in Table 5) were determined directly by the fluorescent antibody competition assay using standards of LY 116196 diluted in TBS-A buffer containing 10% (v/v) normal mouse plasma. This method also has been used to measure blood concentrations of several compounds recognized by monoclonal antibody 13E3 and/or other antibodies produced by the methods described above. Thus, these reagents appear to have general utility for determining […] and tissue concentrations of immunologically positive compounds.

[4] = tested on: diabetic female (Avy/a) mice; assay: Fed blood glucose in dexamethasone-treated diabetic female Avy/a mice; assay type: in vivo, mouse; conditions: subcutaneous, three days; FIG. 4
Method: In order to determine if any of these novel, non-thiazolidinedione structures had anti-diabetic activity, LY 116196 was administered subcutaneously for three days to female Avy/a mice, which had been made diabetic by implantation of dexamethasone pellets. These dexamethasone-treated mice are characterized by both hyperglycemia and hyperinsulinemia and are models of type II diabetes. Sulfonylureas and other insulin secretagogues have little, if any, effect on blood glucose concentrations in this insulin-resistant animal model. […] Thus, this high-volume screen has detected a novel, anti-diabetic compound, LY 116196.

13E3 F(ab')2 fragments = assay: ELISA competitive inhibition between CS-045 and anti-idiotypic antibodies on 13E3 F(ab')2 fragments; assay type: binding, mouse; conditions: 0-200 μM CS-045; FIG. 3
Method: To test whether or not CS-045 could, in turn, displace these anti-idiotypicantibodies, 0.3 μg/well of 13E3 F(ab')2 fragments were coated onto microtiter plates and blocked with 1% BLOTTO (non-fat dry milk). Between 0-200 μM of CS-045 was added to duplicate wells. After approximately two hours at room temperature, wells were washed with BLOTTO and 500 ng of anti-idiotypic antibody 2E5 or 7E7 was added for approximately 1 hour. Goat anti-mouse (Fc -specific) conjugated with horseradish peroxidase was added and, after 30 minutes, washed 3 times with BLOTTO. A peroxidase substrate, tetramethylbenzidine (Kirkegaard and Perry Laboratories, Gaithersberg, Md.) was added and color was developed for approximately 30 minutes at room temperature.

Question: Which “% inhibition in screen” value (monoclonal antibody 13E3 [1]) does the source give for `O=P(O)(O)c1ccc(N=Nc2cc(C(F)(F)F)cc3nc(C(F)(F)C(F)F)[nH]c23)cc1` [LY 296345] here?
Answer: 94%

Question: And the IC50 (monoclonal antibody 13E3 [1])?
Answer: 250 nM

Question: Which results are given for `CC1(COc2ccc(CC3SC(=O)NC3=O)cc2)CCCCC1` (stereo not shown) [Ciglitazone, ciglitazone]?
Answer: IC50 (monoclonal antibody 8D6): 125 nM; IC50 (monoclonal antibody 10E1): 989 nM; IC50 (monoclonal antibody 13E3 [2]): 1160 nM; IC50 (monoclonal antibody 8F1): 12.3 µM

Question: Which results are given for `CC(C)(Oc1ccc(C(=O)c2ccc(OC(C)(C)C(=O)O)cc2)cc1)C(=O)O` [LY 116196]?
Answer: Relative fluorescence, sample channel (monoclonal antibody 13E3 [1]; 545/575 nm, 4.0 μM): 360; Relative fluorescence, reference channel (monoclonal antibody 13E3 [1]; 590/620 nm, 4.0 μM): 6,500; % inhibition in screen (monoclonal antibody 13E3 [1]): 105%; IC50 (monoclonal antibody 13E3 [1]): 60 nM; Plasma concentration of LY 116196 ([3]; 30 mg s.c., 24 hr after third injection): 0 µmol/L; Plasma concentration of LY 116196 ([3]; 100 mg s.c., 24 hr after third injection): 0 µmol/L; concentration at 1 h ([3]; mouse, plasma, sc, 30 mg s.c.): 25 ± 11 µM; concentration at 3 h ([3]; mouse, plasma, sc, 30 mg s.c.): 0.32 ± 0.2 µM; concentration at 6 h ([3]; mouse, plasma, sc, 30 mg s.c.): 104 ± 52 nM; concentration at 1 h ([3]; mouse, plasma, sc, 100 mg s.c.): 83.3 ± 8 µM; concentration at 3 h ([3]; mouse, plasma, sc, 100 mg s.c.): 6 ± 1.6 µM; concentration at 6 h ([3]; mouse, plasma, sc, 100 mg s.c.): 268 ± 88 nM; concentration at 1 h ([3]; mouse, plasma, sc, 300 mg s.c.): 528 ± 72 µM; concentration at 3 h ([3]; mouse, plasma, sc, 300 mg s.c.): 24 ± 5.5 µM; concentration at 6 h ([3]; mouse, plasma, sc, 300 mg s.c.): 6400 ± 3000 nM; concentration at 24 h ([3]; mouse, plasma, sc, 300 mg s.c., 24 hr after third injection): 452 ± 22 nM; Fed blood glucose [4]: effectively lowered fed blood glucose

Question: What does the source list for `CN(C)C=Nc1nc2c(s1)CCc1sc(C=NN(C)C)nc1-2` [LY 181036]?
Answer: % inhibition in screen (monoclonal antibody 13E3 [1]): 90%; IC50 (monoclonal antibody 13E3 [1]): 2000 nM

Question: For `O=C(O)COc1ccccc1/C=N/N=C/c1ccccc1OCC(=O)O` [LY 281809], which “% inhibition in screen” value (monoclonal antibody 13E3 [1]) is on record?
Answer: 89%

Question: And the IC50 (monoclonal antibody 13E3 [1])?
Answer: 2000 nM

Question: Which “% inhibition in screen” value (monoclonal antibody 13E3 [1]) does the source give for `O=C(Nc1ccc(Br)c(Cl)c1)C(F)(C(F)(F)F)C(F)(F)F` [LY 800663] here?
Answer: 65%

Question: And the IC50 (monoclonal antibody 13E3 [1])?
Answer: 8000 nM

Question: Which “Displacement of anti-idiotypic antibodies 2E5 and 7E7” value (13E3 F(ab')2 fragments) does the source give for `Cc1c(C)c2c(c(C)c1O)CCC(C)(COc1ccc(CC3SC(=O)NC3=O)cc1)O2` (stereo not shown) [CS-045] here?
Answer: can displace two anti-idiotypic antibodies

Question: And the IC50 (monoclonal antibody 8D6)?
Answer: 77 nM

Question: What about the IC50 (monoclonal antibody 10E1) of the same molecule?
Answer: 30 nM

Question: What about the IC50 (monoclonal antibody 13E3 [2]) of the same molecule?
Answer: 200 nM

Question: And the IC50 (monoclonal antibody 8F1)?
Answer: 1.15 µM

Question: Which results are given for `O=C1NC(=O)C(Cc2ccc3oc(Cc4ccc5ccccc5c4)nc3c2)S1` (stereo not shown) [LY 282449]?
Answer: IC50 (monoclonal antibody 8D6): 4760 nM; IC50 (monoclonal antibody 10E1): 1410 nM; IC50 (monoclonal antibody 13E3 [2]): 520 nM; IC50 (monoclonal antibody 8F1): 4.98 µM

Question: Which “% inhibition in screen” value (monoclonal antibody 13E3 [1]) does the source give for `N#Cc1cc(F)cc(F)c1NC(=O)c1ccc(Cl)c(Cl)c1` [LY 820960] here?
Answer: 55%

Question: And the IC50 (monoclonal antibody 13E3 [1])?
Answer: 4000 nM

Question: What does the source list for `O=c1[nH]c(=O)n(Cc2ccc(OCCc3coc(-c4ccccc4)n3)cc2)o1` [LY 301563]?
Answer: % inhibition in screen (monoclonal antibody 13E3 [1]): 88%; IC50 (monoclonal antibody 13E3 [1]): 250 nM

Question: With `CC(C)(Oc1ccc(/C=C/C(=O)c2ccccc2)cc1)C(=O)O` [LY 099238] as the molecule, how does the “% inhibition in screen” value (monoclonal antibody 13E3 [1]) read?
Answer: 87%

Question: And the IC50 (monoclonal antibody 13E3 [1])?
Answer: 2000 nM

Question: Which results are given for `O=C(CC(=O)Nc1nc(-c2ccc(Cl)cc2)cs1)NCCO` [LY 305329]?
Answer: % inhibition in screen (monoclonal antibody 13E3 [1]): 53%; IC50 (monoclonal antibody 13E3 [1]): 3600 nM

Question: For `CN1C(=CC(=C(C=Cc2ccc3ccccc3[n+]2C)Oc2ccccc2O)c2ccccc2)C=Cc2ccccc21` [LY 283909], which “% inhibition in screen” value (monoclonal antibody 13E3 [1]) is on record?
Answer: 70%

Question: For `FC(F)(F)c1nc2cc(Cl)c(Cl)cc2[nH]1` [LY 047310], which “% inhibition in screen” value (monoclonal antibody 13E3 [1]) is on record?
Answer: 60%

Question: And the IC50 (monoclonal antibody 13E3 [1])?
Answer: 5000 nM

Question: What does the source list for `CCCCCC(=O)c1ccc(OC(C)(C)C(=O)O)cc1` [LY 044047]?
Answer: % inhibition in screen (monoclonal antibody 13E3 [1]): 61%; IC50 (monoclonal antibody 13E3 [1]): 4000 nM

Question: What does the source list for `O=C(O)CC(=O)Nc1nc(-c2ccc(Cl)cc2)cs1` [LY 305334]?
Answer: % inhibition in screen (monoclonal antibody 13E3 [1]): 89%; IC50 (monoclonal antibody 13E3 [1]): 250 nM

Question: What does the source list for `CCOC(=O)C(C)OP(=O)(Nc1ccccc1)OC(C)C(=O)OCC` (stereo not shown) [LY 222072]?
Answer: % inhibition in screen (monoclonal antibody 13E3 [1]): 101%; IC50 (monoclonal antibody 13E3 [1]): 8000 nM
